According to US20110262442A1, “COMPOSITIONS FOR TREATING CNS DISORDERS” (Adenios, Inc., priority 2009, published 2011):

Legend:
[1] = system: blood brain barrier; assay: Fluorimetric analysis of labeled dextrans in brain after i.v. drug administration; format: in vivo, mice
Procedure: C57BL/6 mice from Jackson Laboratories were used as wild types. All mice used were aged 7-9 weeks and weighed between 20-25 g. All rats were aged 8 weeks and weighed 200-220 g. Mice and rats were bred and housed under specific pathogen-free conditions.
The adenosine receptor agonists NECA, CCPA and CGS 21860 were purchased from Tocris. Each was dissolved in DMSO then diluted in PBS to the desired concentration; in most cases final DMSO concentrations were <0.5% (vol/vol). For vehicle controls, DMSO was diluted in PBS to the same concentration. Dehydrated dextrans labeled with either FITC or Texas Red were purchased from Invitrogen and re-suspended in PBS to 10 mg ml^−1. All experiments involving dextran injection used 0.5 mg dextran in PBS. In experiments where drug and dextran were injected concomitantly, 0.5 mg of dextran was mixed with the drug to the desired concentration in a final volume of 200 μl. All injections were retro-orbital i.v. with a 27-gauge needle. In the SCH 58261 experiment, groups were administered vehicle or SCH 58261 for 4 d. Vehicle/drug and dextrans were injected on day 5 and tissues were collected 3 h after vehicle/drug administration. In Lexiscan experiments, Lexiscan was administered i.v. with 3 injections, 5 min apart and tissues were collected at 15 min unless otherwise indicated.
In dose-response experiments and experiments with the A1 AR and A2A AR knock-out mice, drugs and dextrans were injected concomitantly. After 3 h, the mice were anesthetized with ketamine/xylazine and subjected to a nose cone containing isoflurane. They were perfused with 25-50 ml ice-cold PBS through the left ventricle of the heart then decapitated. Their brains were removed, weighed and frozen for later analysis.
Ice-cold 50 mM Tris-Cl (pH 7.6) was added to frozen brains (100 μl per 100 mg brain) and were to thawed on ice. They were homogenized manually with ˜45 strokes of a dounce homogenizer in plastic 1.5 ml microfuge tubes then spun at 16.1 g in a microfuge for 30 min at room temperature (rt). The supernatants were transferred to new tubes and an equal volume absolute methanol was added. The samples were spun again at 16.1 g for 30 min at rt. Supernatant (200 μl) was transferred to a Corning costar 96 well black polystyrene assay plate (clear bottom). Additionally, a series of standards containing 0.001-10 μg ml^−1 dextran in 50% Tris-Cl/50% absolute methanol (vol/vol) was added to each plate. Absolute concentrations of dextrans were derived from these standard curves. Fluorimetric analysis was performed on a BioTek Synergy 4. FITC-dextran was detected at 488/519 (excitation/emission) and Texas Red-dextran was detected at 592/618.

[2] = system: blood brain barrier; assay: Fluorimetric analysis of labeled dextrans in brain after i.v. drug administration, rats; format: in vivo; conditions: i.v. administration, 10,000 Da dextrans
Procedure: C57BL/6 mice from Jackson Laboratories were used as wild types. All mice used were aged 7-9 weeks and weighed between 20-25 g. All rats were aged 8 weeks and weighed 200-220 g. Mice and rats were bred and housed under specific pathogen-free conditions. The adenosine receptor agonists NECA, CCPA and CGS 21860 were purchased from Tocris. Each was dissolved in DMSO then diluted in PBS to the desired concentration; in most cases final DMSO concentrations were <0.5% (vol/vol). For vehicle controls, DMSO was diluted in PBS to the same concentration. Dehydrated dextrans labeled with either FITC or Texas Red were purchased from Invitrogen and re-suspended in PBS to 10 mg ml^-1. All experiments involving dextran injection used 0.5 mg dextran in PBS. In experiments where drug and dextran were injected concomitantly, 0.5 mg of dextran was mixed with the drug to the desired concentration in a final volume of 200 μl. All injections were retro-orbital i.v. with a 27-gauge needle. In the SCH 58261 experiment, groups were administered vehicle or SCH 58261 for 4 d. Vehicle/drug and dextrans were injected on day 5 and tissues were collected 3 h after vehicle/drug administration. […] FITC-dextran was detected at 488/519 (excitation/emission) and Texas Red-dextran was detected at 592/618.

[3] = system: brain endothelial cells; assay: Actin stress fiber induction in brain endothelial cells; format: cell-based
Procedure: To test this brain endothelial cells were treated with either CCPA (to agonize A1 adenosine receptors) or […] (to agonize the A2A adenosine receptor).

[4] = system: Experimental Autoimmune Encephalomyelitis (EAE); assay: MOG-induced EAE induction and daily scoring; format: in vivo, mice; conditions: wild type mice; 2 mg/kg (1 mg/kg i.p. and 1 mg/kg s.c.) 1 day prior to EAE induction and daily for 30 days; vs DMSO alone
Excerpt: Cd73^−/− mice have been previously described (Thompson et al., “Crucial Role for Ecto-5′-Nucleotidase (CD73) in Vascular Leakage During Hypoxia,” J. Exp. Med. 200:1395-1405 (2004), which is hereby incorporated by reference in its entirety) and have been backcrossed to C57BL/6 for 14 generations. Cd73 mice have no overt susceptibility to infection and appear normal based on the size and cellular composition of their lymphoid organs and their T and B cell responses in in vivo and in vitro assays (Thompson et al., “Crucial Role for Ecto-5′-Nucleotidase (CD73) in Vascular Leakage During Hypoxia,” J. Exp. Med. 200:1395-1405 (2004), which is hereby incorporated by reference in its entirety). C57BL/6 and tcrα^−/− mice on the C57BL/6 background were purchased from The Jackson Laboratories. Mice were bred and housed under specific pathogen-free conditions at Cornell University or the University of Turku. For adenosine receptor blockade experiments, mice were given drinking water supplemented with 0.6 g/L of caffeine (Sigma) or 2 mg/kg SCH58261 (1 mg/kg s.c. and 1 mg/kg i.p.) in DMSO (45% vol. in PBS) or 45% DMSO alone starting 1 day before EAE induction and continuing throughout the experiment. All procedures performed on mice were approved by the relevant animal review committee.
EAE was induced by subjecting mice to the myelin oligodendrocyte glycoprotein (“MOG”) EAE-inducing regimen as described in Swanborg, “Experimental Autoimmune Encephalomyelitis in Rodents as a Model for Human Demyelinating Disease,” Clin. Immunol. Immunopathol. 77:4-13 (1995) and Bynoe et al., “Epicutaneous Immunization with Autoantigenic Peptides Induces T Suppressor Cells that Prevent Experimental Allergic Encephalomyelitis,” Immunity 19:317-328 (2003), which are hereby incorporated by reference in their entirety. Briefly, a 1:1 emulsion of MOG35-55 peptide (3 mg/ml in PBS) (Invitrogen) and complete Freund's adjuvant (CFA, Sigma) was injected subcutaneously (50 μl) into each flank. Pertussis toxin (PTX, 20 ng) (Biological Laboratories Inc.) was given intravenously (200 μl in PBS) at the time of immunization and again 2 days later. Mice were scored daily for EAE based on disease symptom severity; 0=no disease, 0.5-1=weak/limp tail, 2=limp tail and partial hind limb paralysis, 3=total hind limb paralysis, 4=both hind limb and fore limb paralysis, 5=death. Mice with a score of 4 were euthanized.

[5] = system: CNS lymphocyte infiltration; assay: Immunohistochemistry of CD4+ infiltrating lymphocytes in brain and spinal cord after EAE induction; format: in vivo; conditions: wild type mice, day 15 post-EAE induction; 2 mg/kg daily; vs DMSO treated
Excerpt: (§1) Cd73^−/− mice have been previously described (Thompson et al., “Crucial Role for Ecto-5′-Nucleotidase (CD73) in Vascular Leakage During Hypoxia,” J. Exp. Med. 200:1395-1405 (2004), which is hereby incorporated by reference in its entirety) and have been backcrossed to C57BL/6 for 14 generations. Cd73 mice have no overt susceptibility to infection and appear normal based on the size and cellular composition of their lymphoid organs and their T and B cell responses in in vivo and in vitro assays (Thompson et al., “Crucial Role for Ecto-5′-Nucleotidase (CD73) in Vascular Leakage During Hypoxia,” J. Exp. Med. 200:1395-1405 (2004), which is hereby incorporated by reference in its entirety). C57BL/6 and tcrα^−/− mice on the C57BL/6 background were purchased from The Jackson Laboratories. Mice were bred and housed under specific pathogen-free conditions at Cornell University or the University of Turku. For adenosine receptor blockade experiments, mice were given drinking water supplemented with 0.6 g/L of caffeine (Sigma) or 2 mg/kg SCH58261 (1 mg/kg s.c. and 1 mg/kg i.p.) in DMSO (45% vol. in PBS) or 45% DMSO alone starting 1 day before EAE induction and continuing throughout the experiment. All procedures performed on mice were approved by the relevant animal review committee. […]

[6] = system: ICAM-1 on the choroid plexus; assay: Immunohistochemistry of ICAM-1 expression at the choroid plexus after EAE induction; format: in vivo; conditions: wild type mice, day 15 post-EAE induction; 2 mg/kg daily; vs DMSO
Excerpt: as §1

[7] = system: blood brain barrier; assay: FITC-Dextran extravasation through the brain endothelium (brain sections); format: in vivo, mice; conditions: wild type mice, FIG. 16
Procedure: In order to examine the effects of caffeine, a general adenosine receptor antagonist, on blood brain barrier permeability, mice were fed caffeine for several days and then injected with FITC Dextran, commonly used to assess endothelial permeability.
More particularly, mice were fed 0.6 g/l caffeine (Sigma, St. Louis, Mo.) in water or regular water ad lib for five days. Mice were injected IP with FITC Dextran (10,000 MW, Molecular Probes, Eugene, Oreg.) and after 30 minutes mice were perfused with ice cold PBS via the left ventricle. Brains were removed and snap frozen in OCT (Tissue Tek, Torrance, Calif.) and stored at −80° C. until sectioning. Tissue sections (5 μm) were stained with hematoxylin for light microscopy and with DAPI for a fluorescent counterstain.

Row | Compound | magnitude of increased BBB permeability compared with NECA administration ([1]; i.v. administration) | BBB permeability to 10,000 Da dextrans ([1]; mice, i.v., 3 injections 5 min apart, tissues collected at 15 min) | time after which FITC-dextran was detectable in the brain ([1]; mice, single i.v. injection) | BBB permeability [2] | actin stress fibers compared to vehicle alone [3] | EAE development [4] | frequency of CD4+ lymphocytes in the brain and spinal cord [5] | ICAM-1 expression on the choroid plexus following EAE induction [6] | FITC-Dextran extravasation across the blood brain barrier [7] | entry of 10,000 Da FITC-dextran into brain ([1]; WT mice, intraperitoneal administration for 4 d, dextran on day 5)
1 | CNC(=O)c1cnn(-c2nc(N)c3ncn([C@@H]4O[C@H](CO)[C@@H](O)[C@H]4O)c3n2)c1 [Lexiscan] | much greater | increase BBB permeability to 10,000 Da dextrans | 5 min | increased BBB permeability in rats | induction of actin stress fibers was observed | – | – | – | – | –
2 | Nc1nc2c(cnn2CCc2ccccc2)c2nc(-c3ccco3)nn12 [SCH58261, 2-(2-Furanyl)-7-(2-phenylethyl)-7H-pyrazolo[4,3-e][1,2,4]triazolo[1,5-c]pyrimidin-5-amine] | – | – | – | – | – | dramatically protected against EAE development | significantly lower frequency | prevented the up regulation of ICAM-1 | inhibit FITC-Dextran extravasation | significantly decreased entry
